Where two headings read alike, the source gives them in different places.
Columns and labels:
c-Abl = molecular target: T1, c-Abl (Homo sapiens, UniProt P00519); experiment: Abl filter-binding kinase assay (Abtide, [γ-32P]ATP); type: biochemical; conditions: isolated Abl; calculated from ID50, ATP-competitive; E0 0.005, S0 0.012 µM
T1 construct: His tag; purchased Upstate (Lake Placid, NY, USA)
Procedure: Baculovirus-produced recombinant purified his-tagged active against human Src and Abl were purchased from Upstate (Lake Placid, NY, USA).
Src activity was measured in a filter-binding assay using the Src Assay Kit (Upstate, Lake Placid, NY, USA), according to the manufacturer's protocol, using the specific Src peptide substrate [[…]] in the presence of 0.125 pmol of Src and 0.160 pmol of [γ-^32P]ATP. Abl activity was measured in a filter-binding assay using an Abl specific peptide substrate (Abtide, Upstate). Reaction conditions were (in a final volume of 10 µl): 25 mM Tris-HCl pH 7.5, 1 mM DTT, 0.012 µM [γ-^32P]ATP, 0.022 µM c-Abl. Reactions were incubated 10 min at 30°C.The samples (9 µl) were spotted on paper cellulose filters which were washed according to the manufacturer's protocol. Filter-bound radioactivity was measured by liquid scintillation with a Microbeta-Trilux apparatus (PerkinElmer, Waltham, MA, USA).
The ID50 were converted to Ki according to a competitive mechanism with respect to the substrate ATP. […] Since (i) the ATP concentration was limiting, i.e., [ATP], Km(ATP), and (ii) the enzyme concentration was not negligible with respect to the ATP concentration, the classical Cheng-Prusoff relationship was not applicable. Consequently, Ki values were calculated according to [drawing 3] (2) where S0 is the concentration of the competing substrate (ATP) and E0 is the concentration of the enzyme. Each experiment was done in triplicate and mean values were used for the interpolation. Curve fitting was performed with the program GraphPad Prism.

CaCo2 [1] = experiment: MTS cell viability assay; type: cell-based, human
Procedure: (§1) Three human and eleven murine cancer cell lines were used. The human NSCLC cell line A549 (ACC 107) and the human colorectal carcinoma cell line CaCo2 (ACC 169) were obtained from Deutsche Sammlung von Mikroorganismen und Zellkulturen (DSMZ, Braunschweig, Germany). The human hepatocellular carcinoma cell line HepG2 (HB-8065) was obtained from American Type Culture Collection (Manassas, VA, USA). The 11 murine NSCLC cell lines were established as described recently. Cells were grown in monolayer cultures in DMEM containing 10% foetal calf serum, 4 mmol/l L-glutamine and 2% Penicillin/Streptomycin at 37°C in a humidified atmosphere of 95% air and 5% CO2.
(§2) Cell culture viability was monitored by CellTiter96® AQueous One Solution Cell Proliferation Assay (Promega GmbH, Mannheim, Germany). The cells were seeded in triplicates in 96-well microtitre plates and treated with the dual kinase inhibitors or vehicle (0.2% DMSO). After 24 h or 96 h of treatment the MTS tetrazolium reagent was added to the cells and incubated for 1 h. Absorbance at 490 nm was assayed with a Victor3 Wallac 1420 Multilabel counter (PerkinElmer, Waltham, MA, USA).

A549 [2] = experiment: MTS cell viability assay; type: cell-based, human
Procedure: as §1, §2

HepG2 [3] = experiment: MTS cell viability assay; type: cell-based, human
Procedure: as §1, §2

GammaD12 [4] = experiment: Cell cycle analysis by flow cytometry; type: cell-based, mouse; conditions: IC50 concentration, 96 h
Procedure: (§3) CycleTEST™ PLUS DNA Reagent Kit (Becton Dickinson GmbH, Heidelberg, Germany) for cell cycle analysis was used, according to the instructions of the manufacturer. Briefly, the cells were harvested with trypsin, washed with PBS, and resuspended in CycleTEST Buffer. The cells were centrifuged and resuspended in solution A. After incubation for 10 min at room temperature, solution B was added and incubated. After adding solution C, the samples were incubated at 4°C protected from light. The samples were stored on ice and protected from light until analysis by FACScan flow cytometer (Becton Dickinson GmbH, Heidelberg, Germany).

A2C12 [5] = experiment: Cell cycle analysis by flow cytometry; type: cell-based, mouse; conditions: IC50 concentration, 96 h
Procedure: as §3

GammaA3 [6] = experiment: Cell cycle analysis by flow cytometry; type: cell-based, mouse; conditions: IC50 concentration, 96 h
Procedure: as §3

CaCo2 [7] = experiment: Cell cycle analysis by flow cytometry; type: cell-based, human; conditions: IC50 concentration, 96 h
Procedure: as §3

A549 [8] = experiment: Cell cycle analysis by flow cytometry; type: cell-based, human; conditions: IC50 concentration, 96 h
Procedure: as §3

GammaD12 [9] = experiment: MTS cell viability assay; type: cell-based, mouse; conditions: MTS
Procedure: as §1, §2

A2C12 [10] = experiment: MTS cell viability assay; type: cell-based, mouse
Procedure: as §1, §2

GammaA3 [11] = experiment: MTS cell viability assay; type: cell-based, mouse
Procedure: as §1, §2

BetaD5 [12] = experiment: MTS cell viability assay; type: cell-based, mouse
Procedure: as §1, §2

BetaD5 [13] = experiment: Cell cycle analysis by flow cytometry; type: cell-based, mouse; conditions: IC50 concentration, 96 h
Procedure: as §3

HepG2 [14] = experiment: Cell cycle analysis by flow cytometry; type: cell-based, human; conditions: IC50 concentration, 96 h
Procedure: as §3

[15] = 24 h, read-out: Calculated IC50 after single treatment for 24 h
[16] = 96 h, read-out: Calculated IC50 after daily treatment for 96 h

T1 sequence (P00519 whole entry): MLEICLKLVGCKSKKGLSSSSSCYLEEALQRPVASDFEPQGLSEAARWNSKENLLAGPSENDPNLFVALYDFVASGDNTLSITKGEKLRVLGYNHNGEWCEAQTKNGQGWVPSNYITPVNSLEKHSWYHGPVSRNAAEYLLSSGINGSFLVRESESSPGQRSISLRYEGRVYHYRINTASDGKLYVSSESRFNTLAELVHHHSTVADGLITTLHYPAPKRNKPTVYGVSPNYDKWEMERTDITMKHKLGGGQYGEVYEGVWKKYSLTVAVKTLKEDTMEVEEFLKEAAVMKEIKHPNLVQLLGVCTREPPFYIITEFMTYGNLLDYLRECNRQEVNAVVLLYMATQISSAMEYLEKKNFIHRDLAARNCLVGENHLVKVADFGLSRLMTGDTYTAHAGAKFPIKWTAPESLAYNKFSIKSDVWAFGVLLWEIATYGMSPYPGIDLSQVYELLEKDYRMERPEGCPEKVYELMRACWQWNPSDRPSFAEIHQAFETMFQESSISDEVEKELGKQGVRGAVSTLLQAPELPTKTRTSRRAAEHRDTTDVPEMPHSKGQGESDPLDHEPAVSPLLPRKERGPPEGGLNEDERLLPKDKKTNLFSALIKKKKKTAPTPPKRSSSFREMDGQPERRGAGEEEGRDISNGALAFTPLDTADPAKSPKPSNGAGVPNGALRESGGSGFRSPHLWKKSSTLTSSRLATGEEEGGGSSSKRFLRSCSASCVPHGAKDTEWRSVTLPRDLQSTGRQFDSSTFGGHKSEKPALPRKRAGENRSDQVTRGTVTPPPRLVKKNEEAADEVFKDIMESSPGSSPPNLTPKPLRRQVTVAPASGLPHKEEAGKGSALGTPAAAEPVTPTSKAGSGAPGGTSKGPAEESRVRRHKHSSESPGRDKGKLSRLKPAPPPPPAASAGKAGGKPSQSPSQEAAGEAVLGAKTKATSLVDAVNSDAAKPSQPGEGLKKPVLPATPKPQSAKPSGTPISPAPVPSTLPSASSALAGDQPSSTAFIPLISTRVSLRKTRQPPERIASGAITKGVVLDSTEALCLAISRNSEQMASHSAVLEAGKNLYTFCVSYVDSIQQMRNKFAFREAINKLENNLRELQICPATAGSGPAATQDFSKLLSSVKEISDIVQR

Compound	Ki (c-Abl) [µM]	IC50 (CaCo2 [1]; [15]) [µM]	IC50 (CaCo2 [1]; [16]) [µM]	IC50 (A549 [2]; [15]) [µM]	IC50 (A549 [2]; [16]) [µM]	IC50 (HepG2 [3]; [15]) [µM]	Cells in G1 phase (GammaD12 [4]) [%]	Cells in G2 phase (GammaD12 [4]) [%]	Cells in S phase (GammaD12 [4]) [%]	Cells in G1 phase (A2C12 [5]) [%]	Cells in G2 phase (A2C12 [5]) [%]	Cells in S phase (A2C12 [5]) [%]	IC50 (GammaD12 [9]; [15]) [µM]	IC50 (GammaD12 [9]; [16]) [µM]	IC50 (A2C12 [10]; [15]) [µM]	IC50 (A2C12 [10]; [16]) [µM]	IC50 (GammaA3 [11]; [15]) [µM]	IC50 (GammaA3 [11]; [16]) [µM]	IC50 (BetaD5 [12]; [15]) [µM]	IC50 (BetaD5 [12]; [16]) [µM]	also measured
CSc1nc(NCCc2ccccc2)c2cnn(C=Cc3ccccc3)c2n1 [Si40]	0.45	> 100	0.4 ± 0.1	> 100	16.2 ± 2.1	> 100	28.4	2.7	68.9	75.7	9.8	14.6	26 ± 3	12.7 ± 0.4	> 100	7 ± 0.5	> 100	> 20	43.6 ± 3.6	12.9 ± 2.9	Cells in G1 phase (GammaA3 [6]): 53.4%; Cells in G2 phase (GammaA3 [6]): 15.4%; Cells in S phase (GammaA3 [6]): 31.3%; Cells in G1 phase (CaCo2 [7]): 52.5%; Cells in G2 phase (CaCo2 [7]): 10.3%; Cells in S phase (CaCo2 [7]): 37.2%; Cells in G1 phase (A549 [8]): 81%; Cells in G2 phase (A549 [8]): 3.8%; Cells in S phase (A549 [8]): 15.2%
CCCCNc1nc(SCC)nc2c1cnn2CC(Cl)c1ccccc1 (stereo not drawn) [Si20]	–	56.2 ± 2	6.5 ± 0.1	25.1 ± 2.6	13.6 ± 1.5	56.2 ± 2.1	31.4	9.7	58.9	55.6	11.3	33.1	17.1 ± 1.5	11.3 ± 1.2	28.1 ± 4.6	11.3 ± 0.9	21.5 ± 2.3	15.5 ± 2.3	27 ± 7.9	10.4	IC50 (HepG2 [3]; [16]): 8.1 ± 2.8 µM; Cells in G1 phase (GammaA3 [6]): 51.9%; Cells in G2 phase (GammaA3 [6]): 17.5%; Cells in S phase (GammaA3 [6]): 30.8%; Cells in G1 phase (BetaD5 [13]): 63.2%; Cells in G2 phase (BetaD5 [13]): 24.2%; Cells in S phase (BetaD5 [13]): 12.6%; Cells in G1 phase (CaCo2 [7]): 61.9%; Cells in G2 phase (CaCo2 [7]): 5.2%; Cells in S phase (CaCo2 [7]): 32.9%; Cells in G1 phase (A549 [8]): 78.9%; Cells in G2 phase (A549 [8]): 4.3%; Cells in S phase (A549 [8]): 16.7%; Cells in G1 phase (HepG2 [14]): 61.5%; Cells in G2 phase (HepG2 [14]): 7.3%; Cells in S phase (HepG2 [14]): 31.2%
BrC(Cn1ncc2c(N3CCOCC3)ncnc21)c1ccccc1 (stereo not drawn) [Si51]	0.22	> 100	> 20	> 100	> 20	> 100	–	–	–	–	–	–	> 100	> 20	> 100	> 20	> 100	> 20	> 100	> 20	–
